# According to patent US5538993A, “Certain tetrahydrocannabinol-7-oic acid derivatives” (priority 1991, dated 1996):
# Key:
# mouse hot plate test = assay: Hot plate test for antinociception (55° C.); type: in vivo; details: 0.02 mg/kg oral, 90 min before test
# Description: In the hot plate test for analgesia an aluminum surface was maintained at 55±1° C. by circulating water through passages in the metal. A clear plastic cylinder 18 cm in diameter and 26 cm high was placed on the surface to prevent escape. The end point was taken when the mouse either performed a hind paw lick or jumped off the surface; in no case were the animals kept for more than 30 secs on the plate. Mice were never used more than one time; control values were always measured at 11 a.m. and test values at 2 p.m. The drugs were administered orally 90 min before the hot plate test. The percent change in response time (latency) was calculated by comparing the mean of the control values with the mean of the test values and statistical signficance determined by a paired tetest analysis using software (Statview, 512) from Brainpower, Inc., Calabasas, Calif.
# [1] = test system: strychnine induced lethality; assay: Protection against strychnine induced lethality; type: in vivo; details: rats; result in words
# Excerpt: (§1) The present compounds are active in several tests generally used to indicate neuroprotection.
# [2] = test system: N-methyl-D-aspartate (NMDA) induced lethality; assay: Protection against NMDA induced lethality; type: in vivo, Balb/c male mice; details: mice; result in words
# Description: as §1
# (§2) Balb/c male mice were administered with the drug 90 min before treatment with NMDA (125 mq/kg) or 120 min before picrotoxin (8 mg/kg) in emulsion, s.c. The survival rate shown in Table VI indicates number of survivors out of total number of animals used.
# NMDA receptor = assay: NMDA-blocking response in Xenopus oocytes injected with rat brain RNA; type: cell-based; details: upon return to ND 96 solution
# Excerpt: The oocyte is the most widely used system for studying the molecular, biophysical. and pharmacological properties of expressed voltage- or transmitter-operated ion channels. This giant cell offers several advantages for this type of studies. It can be readily used for two-electrode voltage clamp studies, translates injected mRNA from different sources and functionally expresses the translated proteins, and it is also readily amenable for intracellular microinjections. Importantly, the recordings of transmitter or voltage-induced currents in a single oocyte are extremely stable and can be done, without rundown, for 2-3 hours; this allows the performance of a full dose-response relation in single oocytes.
# Neuronal receptors for excitatory amino acid (EAA) are becoming increasingly important for the understanding of normal and pathological brain function. Quantitative pharmacological studies of EAA receptor/ion channel. complex are difficult to study in neurons. Therefore, Xenopus oocyte injected with brain MRNA is now the preparation of choice.
# The response to N-methyl-D-aspartate (NMDA) in oocytes injected with rat brain mRNA was characterized and the effects of HU-245 were studied.
# Female Xenopus were anesthetized by immersion in water containing 0.15% tricaine methanesulfonate and a small incision was made in the lower abdomen. Ovary fragments were removed into ND-96. […]
# cataleptic response = assay: Cataleptic effects, ring test; type: in vivo, mouse; details: 5 min test period, ± SD
# Description: The lack of CNS activity for the compounds described herein may be seen from the data shown in Table V. This was measured by the so-called "ring test" [Pertwee, R. G., et al., J. Pharmacol., 46, 753 (1972)] in which the cataleptic effects of cannabinoids can be quantitated. The compounds produced little or no response when compared with the parent drug.
# The cataleptic response was measured using the ring test. Mice were placed on a horizontal wire ring 5.5 cm in diameter, which was attached to a 16 cm vertical rod. The hind paws and fore paws were placed at opposite sides of the ring. It is important that the ambient temperature is maintained at 30° C. and that the environment be free of auditory stimuli and bright lights. The criteria for immobility are detailed by Pertwee. The response is calculated as the fraction of time the mouse is immobile over a 5 min. test period. Measurements were always done between 2 and 4 p.m. and the animals were used only once.
# Solubility = type: physicochemical; details: result in words
# intraocular pressure = assay: Reduction of intraocular pressure (anti-glaucoma); type: in vivo, rabbits; details: 50 μl drop of a 1% emulsion into rabbit eye
# Description: Reduction of intraocular pressure in rabbits was determined by the addition of a 50 μl drop of a 1% emulsion of the cannabinoid into the rabbit eye. This test is a measure of anti-glaucoma activity.
# forebrain ischemia = assay: Protection against forebrain ischemia (unilateral occlusion); type: in vivo; details: mongolian gerbils, result in words
# Excerpt: as §1
# peritoneal leukocytes = assay: Leukocyte adhesion assay (peritoneal cells after oral dosing); type: in vivo, female CD-1 mice; details: cells collected 90 min after dosing; for number of adhering cells: ± S.D
# Description: Leukocytes are thought to be major contributors to the inflammatory response and their ability in this regard is reflected by their adhesiveness to a variety of substrates [Audette, C. A., et al., ibid.] Sci., 47, 753 (1990)].
# The details of the leukocytes adhesion assay have been previously reported [Audette et al., ibid.]. In brief, peritoneal cells from female CD-1 mice (20-25 g) were collected at 90 min following oral administration of the drug or vehicle (50 μl peanut oil). Cells from each treatment group (N=3) were pooled and equal numbers aliquoted into six culture dish wells (1.9 cm^2 area). After incubation for 18-20 hours, non-adhering cells were removed and the remaining cell monolayer quantitated by DNA measurement.
# [3] = test system: Picrotoxin induced lethality; assay: Protection against picrotoxin induced lethality; type: in vivo, Balb/c male mice; details: mice; result in words
# Description: as §1, §2
smiles,measurement,setting,value
"CCCCCCC(C)(C)c1cc(OC(C)=O)c2c(c1)OC(C)(C)[C@H]1CC=C(C(=O)O)C[C@H]21 [HU-245, (3S, 4S) -THC-DMH-7-oic acid, acetate]",percent change in latency,mouse hot plate test,10.7%
same,protection against strychnine induced lethality,[1],protects against strychnine induced lethality
same,blocking of NMDA induced lethality,[2],blocker
same,reversibility of effect on NMDA response,NMDA receptor,reversible
same,cataleptic response (fraction of time immobile),cataleptic response; 0.5 mg/kg,6.8 ± 2.4
same,cataleptic response (fraction of time immobile),cataleptic response; 1.0 mg/kg,12.0 ± 6.0
same,solubility compared with prior art compounds,Solubility,higher than that of prior art compounds
same,reduction of intraocular pressure,intraocular pressure,Significant reduction
same,protection against forebrain ischemia,forebrain ischemia,shown to protect against forebrain ischemia
same,"adhering cells, percent of control",peritoneal leukocytes; 0.10 mg/kg oral,124% of control
same,number of adhering cells,peritoneal leukocytes; 0.10 mg/kg oral,0.66 ± 0.08 number of adhering cells × 10^-6
same,number of adhering cells,peritoneal leukocytes; 0.50 mg/kg oral,0.85 ± 0.08 number of adhering cells × 10^-6
same,number of adhering cells,peritoneal leukocytes; 1.00 mg/kg oral,0.30 ± 0.04 number of adhering cells × 10^-6
same,blocking of picrotoxin induced lethality,[3],blocker
